According to PubChem BioAssay AID2060891 (Molecular Pharmacology Branch, DTP, NCI, 2025):
Values belong to the compound of their own block, whether it stands above or below them.

System: K98450-129-R-PDC complex spheroid growth, percent test/control
Assay: Anticancer human tumor K98450-129-R-PDC patient-derived colon adenocarcinoma cell line growth inhibition [RAS]
Conditions: for IC50: curve of first compound; for viability, T/C: stronger effect = lower value
In short: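 Agents were tested in combination matrices in half-log decrements from a top concentration at or near clinical Cmax (10 microM if undetermined). Targets were multi-cell spheroids of tumour lines plus HUVEC and MSC stromal cells.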
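Also: spheroids exposed to agents for seven days before the viability readout.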
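For viability, T/C in this document: luminescence used as a proxy for viable cell amount.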

IC50 (second compound 0.000949 µM): 16.9 nM
IC50 (second compound 0.003 µM): 2.54 nM
IC50 (second compound 0.00949 µM): < 0.949 nM
IC50 (second compound 0.03 µM): < 0.949 nM
IC50 (second compound 0.0949 µM): < 0.949 nM
IC50 (second compound 0.3 µM): < 0.949 nM
SMILES: CCc1c2c(nc3ccc(O)cc13)-c1cc3c(c(=O)n1C2)COC(=O)[C@]3(O)CC + CCn1c(-c2cccnc2C(C)OC)c2c3cc(ccc31)N1CCOC(CC(NC(=O)C(C(C)C)N(C)C(=O)C3(F)CCN(C(=O)C#CC(C)(C)N(C)C)CC3)C(=O)N3CCCC(N3)C(=O)OCC(C)(C)C2)C1
viability, T/C (second compound 0.000949 µM, first compound 0.000949 µM): 71.1%
viability, T/C (second compound 0.000949 µM, first compound 0.003 µM): 64.6%
viability, T/C (second compound 0.000949 µM, first compound 0.00949 µM): 60.9%
viability, T/C (second compound 0.000949 µM, first compound 0.03 µM): 39.8%
viability, T/C (second compound 0.000949 µM, first compound 0.0949 µM): 30.2%
viability, T/C (second compound 0.000949 µM, first compound 0.3 µM): 25.4%
viability, T/C (second compound 0.003 µM, first compound 0.000949 µM): 58.1%
viability, T/C (second compound 0.003 µM, first compound 0.003 µM): 48.9%
viability, T/C (second compound 0.003 µM, first compound 0.00949 µM): 38.9%
viability, T/C (second compound 0.003 µM, first compound 0.03 µM): 30.9%
viability, T/C (second compound 0.003 µM, first compound 0.0949 µM): 24.3%
viability, T/C (second compound 0.003 µM, first compound 0.3 µM): 15.8%
viability, T/C (second compound 0.00949 µM, first compound 0.000949 µM): 44.3%
viability, T/C (second compound 0.00949 µM, first compound 0.003 µM): 36.2%
viability, T/C (second compound 0.00949 µM, first compound 0.00949 µM): 32.8%
viability, T/C (second compound 0.00949 µM, first compound 0.03 µM): 22.7%
viability, T/C (second compound 0.00949 µM, first compound 0.0949 µM): 16.9%
viability, T/C (second compound 0.00949 µM, first compound 0.3 µM): 14%
viability, T/C (second compound 0.03 µM, first compound 0.000949 µM): 32.8%
viability, T/C (second compound 0.03 µM, first compound 0.003 µM): 40.1%
viability, T/C (second compound 0.03 µM, first compound 0.00949 µM): 25.6%
viability, T/C (second compound 0.03 µM, first compound 0.03 µM): 24.7%
viability, T/C (second compound 0.03 µM, first compound 0.0949 µM): 19.5%
viability, T/C (second compound 0.03 µM, first compound 0.3 µM): 11.6%
viability, T/C (second compound 0.0949 µM, first compound 0.000949 µM): 35.1%
viability, T/C (second compound 0.0949 µM, first compound 0.003 µM): 33.8%
viability, T/C (second compound 0.0949 µM, first compound 0.00949 µM): 27.9%
viability, T/C (second compound 0.0949 µM, first compound 0.03 µM): 22.3%
viability, T/C (second compound 0.0949 µM, first compound 0.0949 µM): 20%
viability, T/C (second compound 0.0949 µM, first compound 0.3 µM): 11.5%
viability, T/C (second compound 0.3 µM, first compound 0.000949 µM): 36%
viability, T/C (second compound 0.3 µM, first compound 0.003 µM): 32.7%
viability, T/C (second compound 0.3 µM, first compound 0.00949 µM): 28.5%
viability, T/C (second compound 0.3 µM, first compound 0.03 µM): 18.3%
viability, T/C (second compound 0.3 µM, first compound 0.0949 µM): 15.4%
viability, T/C (second compound 0.3 µM, first compound 0.3 µM): 10.7%

IC50 (second compound 0.000949 µM): 18.4 nM
IC50 (second compound 0.003 µM): 9.33 nM
IC50 (second compound 0.00949 µM): < 3.16 nM
IC50 (second compound 0.03 µM): < 3.16 nM
IC50 (second compound 0.0949 µM): < 3.16 nM
IC50 (second compound 0.3 µM): < 3.16 nM
SMILES: Nc1ccn(C2OC(CO)C(O)C2(F)F)c(=O)n1 (centres undefined) + CCn1c(-c2cccnc2C(C)OC)c2c3cc(ccc31)N1CCOC(CC(NC(=O)C(C(C)C)N(C)C(=O)C3(F)CCN(C(=O)C#CC(C)(C)N(C)C)CC3)C(=O)N3CCCC(N3)C(=O)OCC(C)(C)C2)C1
viability, T/C (second compound 0.000949 µM, first compound 0.00316 µM): 73.8%
viability, T/C (second compound 0.000949 µM, first compound 0.01 µM): 43%
viability, T/C (second compound 0.000949 µM, first compound 0.0316 µM): 51.7%
viability, T/C (second compound 0.000949 µM, first compound 0.1 µM): 39.8%
viability, T/C (second compound 0.000949 µM, first compound 0.316 µM): 32.4%
viability, T/C (second compound 0.000949 µM, first compound 1 µM): 25.3%
viability, T/C (second compound 0.003 µM, first compound 0.00316 µM): 65.6%
viability, T/C (second compound 0.003 µM, first compound 0.01 µM): 43.6%
viability, T/C (second compound 0.003 µM, first compound 0.0316 µM): 42.4%
viability, T/C (second compound 0.003 µM, first compound 0.1 µM): 26.9%
viability, T/C (second compound 0.003 µM, first compound 0.316 µM): 24.5%
viability, T/C (second compound 0.003 µM, first compound 1 µM): 17%
viability, T/C (second compound 0.00949 µM, first compound 0.00316 µM): 49.1%
viability, T/C (second compound 0.00949 µM, first compound 0.01 µM): 38.4%
viability, T/C (second compound 0.00949 µM, first compound 0.0316 µM): 29.8%
viability, T/C (second compound 0.00949 µM, first compound 0.1 µM): 21.9%
viability, T/C (second compound 0.00949 µM, first compound 0.316 µM): 19.9%
viability, T/C (second compound 0.00949 µM, first compound 1 µM): 18.1%
viability, T/C (second compound 0.03 µM, first compound 0.00316 µM): 39%
viability, T/C (second compound 0.03 µM, first compound 0.01 µM): 34.8%
viability, T/C (second compound 0.03 µM, first compound 0.0316 µM): 26.4%
viability, T/C (second compound 0.03 µM, first compound 0.1 µM): 20.7%
viability, T/C (second compound 0.03 µM, first compound 0.316 µM): 20.6%
viability, T/C (second compound 0.03 µM, first compound 1 µM): 17.3%
viability, T/C (second compound 0.0949 µM, first compound 0.00316 µM): 32.4%
viability, T/C (second compound 0.0949 µM, first compound 0.01 µM): 37.1%
viability, T/C (second compound 0.0949 µM, first compound 0.0316 µM): 25.7%
viability, T/C (second compound 0.0949 µM, first compound 0.1 µM): 21.2%
viability, T/C (second compound 0.0949 µM, first compound 0.316 µM): 20.8%
viability, T/C (second compound 0.0949 µM, first compound 1 µM): 16.8%
viability, T/C (second compound 0.3 µM, first compound 0.00316 µM): 33.5%
viability, T/C (second compound 0.3 µM, first compound 0.01 µM): 32.1%
viability, T/C (second compound 0.3 µM, first compound 0.0316 µM): 26.6%
viability, T/C (second compound 0.3 µM, first compound 0.1 µM): 19.1%
viability, T/C (second compound 0.3 µM, first compound 0.316 µM): 19.5%
viability, T/C (second compound 0.3 µM, first compound 1 µM): 15.6%
